Source: patent US5439891A (priority 1993, dated 1995)

Legend:
[1] = in vivo
[2] = cited from earlier work
[3] = assay type: in vivo; conditions: rats; in combination with piperine

SMILES | bioavailability of the drugs in blood [1] | solubility in organic solvents ([2]; benzene, chlorform, ether, ethyl acetate, dichloromethane, alcohol, acetic acid) | solubility in pet. ether ([2]; pet. ether) | solubility in water ([2]; water) | AUC compared to drugs without piperine in equivalent doses [3] | plasma levels [3] | bioavailability in combination with piperine [1]
O=C(/C=C/C=C/c1ccc2c(c1)OCO2)N1CCCCC1 [Piperine, (E, E) 1-[5-(1,3-benzodioxyl-5-yl)-1-oxo-2,4-pentadenyl] piperidine] | increase in the bioavailability | soluble | insoluble | insoluble |  |  | 
NNC(=O)c1ccncc1 [isoniazid] |  |  |  |  | very high AUC | significant increase | 
NC(=O)c1cnccn1 [pyrazinamide] |  |  |  |  | very high AUC | significant increase | 
CO[C@H]1/C=C/O[C@@]2(C)Oc3c(C)c(O)c4c(O)c(c(/C=N/N5CCN(C)CC5)c(O)c4c3C2=O)NC(=O)/C(C)=C\C=C\[C@H](C)[C@H](O)[C@@H](C)[C@@H](O)[C@@H](C)[C@H](OC(C)=O)[C@@H]1C [rifampicin] |  |  |  |  | very high AUC | significant increase | significantly increasing the bioavailability
